In US8680113B2, “BMI-1 protein expression modulators” (PTC Therapeutics, Inc., priority 2008, dated 2014):

System: Bmi-1
Experiment: Sandwich ELISA Assay (Bmi-1 ELISA in HT-1080 cells)
Type: cell-based, human
Method in brief: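 HT-1080 cells (8000/well) were treated with compounds in 0.5% final DMSO for 40-48 h at 37°C and then lysed. Bmi-1 in lysates was measured by sandwich ELISA: overnight capture at 4°C on mouse monoclonal, rabbit anti-Bmi-1 detection, HRP anti-rabbit, TMB. OD450 was read with an OD570 reference against a recombinant GST-Bmi-1 standard curve (0-8000 pg/mL).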

| SMILES | IC50 [nM] |
| --- | --- |
| Cc1nc2ccccn2c1-c1csc(Nc2ccc(N(C)C)cc2)n1 [Cpd 41, N,N-dimethyl-N′-[4-(2-methylimidazo[1,2-a]pyridin-3-yl)-1,3-thiazol-2-yl]benzene-1,4-diamine] | < 500 |
| CC(=O)c1ccc(Nc2nc(-c3c(C)nc4ccc(Cl)cn34)cs2)cc1 [Cpd 62, 1-(4-{[4-(6-chloro-2-methylimidazo[1,2-a]pyridin-3-yl)-1,3-thiazol-2-yl]amino}phenyl)ethanone] | < 500 |
| COCCOc1ccc(Nc2nc(-c3c(C)nc4ccc(C)cn34)cs2)cc1 [Cpd 74, 4-(2,6-dimethylimidazo[1,2-a]pyridin-3-yl)-N-[4-(2-methoxyethoxy)phenyl]-1,3-thiazol-2-amine] | < 500 |
| Cc1nc2ccc(Cl)cn2c1-c1csc(Nc2c(Cl)cccc2Cl)n1 [Cpd 98, 4-(6-chloro-2-methylimidazo[1,2-a]pyridin-3-yl)-N-(2,6-dichlorophenyl)-1,3-thiazol-2-amine] | < 500 |
| Cc1ccn2c(-c3csc(Nc4ccc(I)cc4)n3)c(C)nc2c1 [Cpd 69, 4-(2,7-dimethylimidazo[1,2-a]pyridin-3-yl)-N-(4-iodophenyl)-1,3-thiazol-2-amine] | < 500 |
| CCc1nc2ncccn2c1-c1csc(Nc2ccc(Cl)cc2)n1 [Cpd 147, N-(4-chlorophenyl)-4-(2-ethylimidazo[1,2-a]pyrimidin-3-yl)-1,3-thiazol-2-amine] | < 500 |
| CN(C)c1ccc(Nc2nccc(-c3cnc4ncccn34)n2)cc1 [Cpd 265, N′-[4-(imidazo[1,2-a]pyrimidin-3-yl)pyrimidin-2-yl]-N,N-dimethylbenzene-1,4-diamine] | 500 to 1000 |
| Cc1ccn2c(-c3csc(Nc4ccc(Br)cc4)n3)c(C)nc2c1 [Cpd 68, N-(4-bromophenyl)-4-(2,7-dimethylimidazo[1,2-a]pyridin-3-yl)-1,3-thiazol-2-amine] | < 500 |
| Cc1nc2ccccn2c1-c1csc(Nc2ccc3c(c2)OCO3)n1 [Cpd 56, N-(1,3-benzodioxol-5-yl)-4-(2-methylimidazo[1,2-a]pyridin-3-yl)-1,3-thiazol-2-amine] | < 500 |
| Cc1ccc(Nc2nc(-c3c(C)nc4ccc(F)cn34)cs2)cc1 [Cpd 237, 4-(6-fluoro-2-methylimidazo[1,2-a]pyridin-3-yl)-N-(4-methylphenyl)-1,3-thiazol-2-amine] | < 500 |
| COc1cc(Cl)c(Nc2nc(-c3c(C)nc4ncccn34)cs2)c(Cl)c1 [Cpd 19, N-(2,6-dichloro-4-methoxyphenyl)-4-(2-methylimidazo[1,2-a]pyrimidin-3-yl)thiazol-2-amine] | 500 to 1000 |
| Ic1ccc(Nc2nc(-c3cnc4ccccn34)cs2)cc1 [Cpd 79, 4-(imidazo[1,2-a]pyridin-3-yl)-N-(4-iodophenyl)-1,3-thiazol-2-amine] | < 500 |
| Cc1nc2c(Br)cccn2c1-c1csc(Nc2ccc(Cl)cc2)n1 [Cpd 230, 4-(8-bromo-2-methylimidazo[1,2-a]pyridin-3-yl)-N-(4-chlorophenyl)-1,3-thiazol-2-amine] | < 500 |
| COc1cccc(Nc2nc(-c3c(C)nc4c(Br)cccn34)cs2)c1 [Cpd 232, 4-(8-bromo-2-methylimidazo[1,2-a]pyridin-3-yl)-N-(3-methoxyphenyl)-1,3-thiazol-2-amine] | < 500 |
| Cc1nc2ccc(Br)cn2c1-c1csc(Nc2ccc(N(C)C)cc2)n1 [Cpd 81, N′-[4-(6-bromo-2-methylimidazo[1,2-a]pyridin-3-yl)-1,3-thiazol-2-yl]-N,N-dimethylbenzene-1,4-diamine] | < 500 |
| Clc1cccc(Nc2nccc(-c3cnc4ncccn34)n2)c1 [Cpd 269, N-(3-chlorophenyl)-4-(imidazo[1,2-a]pyrimidin-3-yl)pyrimidin-2-amine] | < 500 |
| CCc1nc2ncccn2c1-c1ccnc(Nc2ccc(Br)cc2)n1 [Cpd 271, N-(4-bromophenyl)-4-(2-ethylimidazo[1,2-a]pyrimidin-3-yl)pyrimidin-2-amine] | < 500 |
| COc1cc(Br)c(Nc2nccc(-c3cnc4ncccn34)n2)c(Br)c1 [Cpd 257, N-(2,6-dibromo-4-methoxyphenyl)-4-(imidazo[1,2-a]pyrimidin-3-yl)pyrimidin-2-amine] | < 500 |
| Cc1ccc(Nc2nc(-c3c(C)nc4ccccn34)cs2)cc1 [Cpd 191, 4-(2-methylimidazo[1,2-a]pyridin-3-yl)-N-(4-methylphenyl)-1,3-thiazol-2-amine] | < 500 |
| CC(=O)Nc1ccc(Nc2nc(-c3c(C)nc4ccccn34)cs2)cc1 [Cpd 194, N-(4-{[4-(2-methylimidazo[1,2-a]pyridin-3-yl)-1,3-thiazol-2-yl]amino}phenyl)acetamide] | < 500 |
| Cc1nc2ccc(Cl)cn2c1-c1csc(Nc2ccc(Br)cc2Cl)n1 [Cpd 132, N-(4-bromo-2-chlorophenyl)-4-(6-chloro-2-methylimidazo[1,2-a]pyridin-3-yl)-1,3-thiazol-2-amine] | < 500 |
| CC(=O)c1ccc(Nc2nc(-c3c(C)nc4ccccn34)cs2)cc1 [Cpd 55, 1-(4-{[4-(2-methylimidazo[1,2-a]pyridin-3-yl)-1,3-thiazol-2-yl]amino}phenyl)ethanone] | < 500 |

| SMILES | IC50 [nM] |
| --- | --- |
| FC(F)(F)c1nc2ccccn2c1-c1csc(Nc2ccc3c(c2)OCO3)n1 [Cpd 195, N-(1,3-benzodioxol-5-yl)-4-[2-(trifluoromethyl)imidazo[1,2-a]pyridin-3-yl]-1,3-thiazol-2-amine] | < 500 |
| CCOc1ccc(Nc2nccc(-c3cnc4ccccn34)n2)cc1 [Cpd 252, N-(4-ethoxyphenyl)-4-(imidazo[1,2-a]pyridin-3-yl)pyrimidin-2-amine] | < 500 |
| Cc1nc2ccc(F)cn2c1-c1csc(Nc2ccc(N(C)C)cc2)n1 [Cpd 157, N′-[4-(6-fluoro-2-methylimidazo[1,2-a]pyridin-3-yl)-1,3-thiazol-2-yl]-N,N-dimethylbenzene-1,4-diamine] | < 500 |
| CC(=O)c1ccc(Nc2nc(-c3c(C)nc4ccc(F)cn34)cs2)cc1 [Cpd 159, 1-(4-{[4-(6-fluoro-2-methylimidazo[1,2-a]pyridin-3-yl)-1,3-thiazol-2-yl]amino}phenyl)ethanone] | < 500 |
| CCCc1nc2ccccn2c1-c1csc(Nc2ccc(OC)cc2)n1 [Cpd 180, N-(4-methoxyphenyl)-4-(2-propylimidazo[1,2-a]pyridin-3-yl)-1,3-thiazol-2-amine] | < 500 |
| Cc1nc2ncccn2c1-c1ccnc(Nc2ccc(Br)cc2)n1 [Cpd 126, N-(4-bromophenyl)-4-(2-methylimidazo[1,2-a]pyrimidin-3-yl)pyrimidin-2-amine] | < 500 |
| COc1ccc(Nc2nc(-c3c(C)nc4ccc(Cl)cn34)cs2)cc1Cl [Cpd 95, N-(3-chloro-4-methoxyphenyl)-4-(6-chloro-2-methylimidazo[1,2-a]pyridin-3-yl)-1,3-thiazol-2-amine] | < 500 |
| Cc1cc(Br)c(Nc2nc(-c3c(C)nc4ncccn34)cs2)c(Br)c1 [Cpd 21, N-(2,6-dibromo-4-methylphenyl)-4-(2-methylimidazo[1,2-a]pyrimidin-3-yl)thiazol-2-amine] | < 500 |
| Cc1nc2c(Br)cccn2c1-c1csc(Nc2ccc(N(C)C)cc2)n1 [Cpd 227, N′-[4-(8-bromo-2-methylimidazo[1,2-a]pyridin-3-yl)-1,3-thiazol-2-yl]-N,N-dimethylbenzene-1,4-diamine] | < 500 |
| CCN(CC)c1ccc(Nc2nccc(-c3c(C)nc4ccccn34)n2)cc1 [Cpd 130, N,N-diethyl-N′-[4-(2-methylimidazo[1,2-a]pyridin-3-yl)pyrimidin-2-yl]benzene-1,4-diamine] | < 500 |
| COc1cccc(Nc2nc(-c3c(C)nc4ccc(Cl)cn34)cs2)c1 [Cpd 217, 4-(6-chloro-2-methylimidazo[1,2-a]pyridin-3-yl)-N-(3-methoxyphenyl)-1,3-thiazol-2-amine] | < 500 |
| Cc1nc2ncccn2c1-c1csc(N(C)c2ccc(Br)cc2)n1 [Cpd 80, N-(4-bromophenyl)-N-methyl-4-(2-methylimidazo[1,2-a]pyrimidin-3-yl)-1,3-thiazol-2-amine] | < 500 |
| COc1ccc(Nc2nccc(-c3cnc4ncccn34)n2)cc1 [Cpd 261, 4-(imidazo[1,2-a]pyrimidin-3-yl)-N-(4-methoxyphenyl)pyrimidin-2-amine] | < 500 |
| Fc1cccc(Nc2nccc(-c3cnc4ccccn34)n2)c1 [Cpd 255, N-(3-fluorophenyl)-4-(imidazo[1,2-a]pyridin-3-yl)pyrimidin-2-amine] | < 500 |
| Cc1nc2ccc(F)cn2c1-c1csc(Nc2ccc(Br)cc2)n1 [Cpd 162, N-(4-bromophenyl)-4-(6-fluoro-2-methylimidazo[1,2-a]pyridin-3-yl)-1,3-thiazol-2-amine] | < 500 |
| CCN(CC)c1ccc(Nc2nc(-c3c(C)nc4ccccn34)cs2)cc1 [Cpd 193, N,N-diethyl-N′-[4-(2-methylimidazo[1,2-a]pyridin-3-yl)-1,3-thiazol-2-yl]benzene-1,4-diamine] | < 500 |
| Cc1nc2cc(Cl)ccn2c1-c1csc(Nc2ccc(N(C)C)cc2)n1 [Cpd 242, N′-[4-(7-chloro-2-methylimidazo[1,2-a]pyridin-3-yl)-1,3-thiazol-2-yl]-N,N-dimethylbenzene-1,4-diamine] | < 500 |
| Cc1nc2ccc(F)cn2c1-c1csc(Nc2ccc(Cl)cc2)n1 [Cpd 161, N-(4-chlorophenyl)-4-(6-fluoro-2-methylimidazo[1,2-a]pyridin-3-yl)-1,3-thiazol-2-amine] | < 500 |
| Cc1nc2ccccn2c1-c1ccnc(Nc2cccc(Br)c2)n1 [Cpd 127, N-(3-bromophenyl)-4-(2-methylimidazo[1,2-a]pyridin-3-yl)pyrimidin-2-amine] | < 500 |
| COc1ccc(Nc2nc(-c3c(C)nc4ccc(Cl)cn34)cs2)c(Br)c1 [Cpd 208, N-(2-bromo-4-methoxyphenyl)-4-(6-chloro-2-methylimidazo[1,2-a]pyridin-3-yl)-1,3-thiazol-2-amine] | < 500 |
| COc1ccc(Nc2nc(-c3c(C)nc4ncccn34)cs2)cc1OC [Cpd 84, N-(3,4-dimethoxyphenyl)-4-(2-methylimidazo[1,2-a]pyrimidin-3-yl)-1,3-thiazol-2-amine] | < 500 |
